For series [1], the system named is Influenza A virus. The series can be described thus: Antiviral activity against amantadine-resistant Influenza A virus (A/PR/8/34 (H1N1)) infected in MDCK cells assessed as virus-induced cytopathic effect measured 3 days post infection by microscopic analysis. It is filed as functional, organism-based. The following applies: A/Puerto Rico/8/1934(H1N1), 72 h.
The test system of series [2] is Influenza B virus. The series can be described thus: Antiviral activity against amantidine and rimantadine-resistant Influenza B virus (B/HK/5/72) infected in MDCK cells assessed as virus-induced cytopathic effect by MTS assay. It is filed as functional, cell-based. The following applies: B/Hong Kong/05/1972, MDCK.
Series [3] has as its system Influenza B virus. The series is described as follows: Antiviral activity against amantidine and rimantadine-resistant Influenza B virus (B/HK/5/72) infected in MDCK cells assessed as virus-induced cytopathic effect measured 3 days post infection by microscopic analysis. In kind it is functional, cell-based. Conditions: B/Hong Kong/05/1972, MDCK, 72 h.
Series [4] concerns Influenza A virus. The series can be described thus: Antiviral activity against amantadine-resistant Influenza A virus (A/PR/8/34 (H1N1)) infected in MDCK cells assessed as virus-induced cytopathic effect by MTS assay. It is filed as functional, organism-based, A/Puerto Rico/8/1934(H1N1).
The nature of series [5]: Selectivity index, ratio of CC50 for dog MDCK cells to EC50 for amantadine-resistant Influenza A virus (A/PR/8/34 (H1N1)). It is filed as toxicity, cell-based. Conditions: read-out: Ratio CC50/EC50.
The mark [6] stands for this setting: Influenza A virus, A/Puerto Rico/8/1934(H1N1), MDCK.

As to `CCOC(=O)C1=C[C@@H](OC(CC)CC)[C@H](NC(C)=O)[C@@H](N)C1` [OSELTAMIVIR], the EC50 in series [1] worked out at 21 µM.

`CC(C)C1C2CC3CC(C2)CC1(N(C)C)C3` (centres undefined): the EC50 in series [2] is more than 50 µM; in series [3], more than 100 µM; in series [4] (setting [6]), 6 µM; in series [1], 5.1 µM.

On to `CC1(C)C2CC3CC(C2)CC1(N1CCCCC1)C3`, for which the EC50 in series [2], in series [3], in series [4] (setting [6]) and in series [1] was more than 100 µM throughout.

Turning to `CCC1(CC)C2CC3CC(C2)CC1(N(C)C)C3`, the EC50 was more than 100 µM in series [2], more than 100 µM in series [3], 9.6 µM in series [4] (setting [6]) and 0.7 µM in series [1].

For the molecule `NC12CC3CC(CC(C3)C13CCCCC3)C2`, the EC50 in series [2] is more than 100 µM; in series [3], more than 100 µM; in series [4] (setting [6]) it was 0.9 µM; in series [1], 1.1 µM.

As for `CC12CC3CC1(C)CC(N)(C2)C3(C)C`, the EC50 is more than 100 µM in series [2], more than 100 µM in series [3], 4.5 µM in series [4] (setting [6]) and 4.6 µM in series [1].

In the case of `CC(C)C1C2CC3CC(C2)CC1(N)C3` (centres undefined), the EC50 in series [2] was more than 100 µM; in series [3], more than 100 µM; in series [4] (setting [6]), 1.2 µM; in series [1] it was 5.8 µM.

As for `CCCC1(CCC)C2CC3CC(C2)CC1(N)C3`, the EC50 in series [2], in series [3], in series [4] (setting [6]) and in series [1] was more than 100 µM throughout.

Turning to `NC12CC3CC(CC(C3)C1)C2` [AMANTADINE], the EC50 was more than 100 µM in series [2], more than 100 µM in series [3] and 53 µM in series [1].

Turning to `CN(Cc1ccccc1)C12CC3CC(CC(C3)C1(C)C)C2`, the EC50 in series [2], in series [3], in series [4] (setting [6]) and in series [1] was more than 100 µM each time.

Turning to `NC(=O)c1ncn([C@@H]2O[C@H](CO)[C@@H](O)[C@H]2O)n1` [RIBAVIRIN], the EC50 in series [2] is 8.1 µM; in series [3], 8 µM; in series [4] (mdck) it was 8.2 µM.

For the molecule `CCC1(CC)C2CC3CC(C2)CC1(NC)C3`, the figures for the EC50 in series [2], in series [3] and in series [1] were more than 100 µM, more than 100 µM and 4 µM, respectively.

Consider `CCC1(CC)C2CC3CC(C2)CC1(N)C3`, for which the selectivity ratio in series [5] was more than 50. For the same molecule, the EC50 in series [2] is more than 100 µM; in series [3] it was more than 100 µM; in series [4] (setting [6]), 1.7 µM; in series [1] it was 1.2 µM.

Consider `CC1(C)C2CC3CC(C2)CC1(N)C3`, for which the EC50 in series [2] is more than 100 µM; in series [3], more than 100 µM; in series [4] (setting [6]) it was 10 µM; in series [1], 15 µM.

Take `CNC12CC3CC(CC(C3)C1(C)C)C2`: the EC50 in series [2] is more than 100 µM; in series [3] it was more than 100 µM; in series [4] (setting [6]) it was 10 µM; in series [1], 6 µM.

With `CCCC1(CCC)C2CC3CC(C2)CC1(N(C)C)C3`, the EC50 was more than 100 µM in series [2], more than 100 µM in series [3], 6.7 µM in series [4] (setting [6]) and 6 µM in series [1].

Regarding `CC1(C)C2CC3CC(C2)CC1(NCc1ccccc1)C3`, the EC50 in series [2], in series [3], in series [4] (setting [6]) and in series [1] was more than 100 µM throughout.

Consider `CCNC12CC3CC(CC(C3)C1(C)C)C2`, for which the EC50 in series [2], in series [3], in series [4] (setting [6]) and in series [1] was more than 100 µM throughout.

As to `CN(C)C12CC3(C)CC(CC3(C)C1)C2(C)C`, the EC50 in series [2] was more than 100 µM; in series [3], more than 100 µM; in series [4] (setting [6]), 5.7 µM; in series [1], 5.8 µM.

Regarding `CN(C)C12CC3CC(CC(C3)C1(C)C)C2`, the EC50 in series [2] is more than 100 µM; in series [3], more than 100 µM; in series [4] (setting [6]), 4.8 µM; in series [1], 4 µM.

On to `CC(N)C12CC3CC(CC(C3)C1)C2` (centres undefined) [RIMANTADINE], for which the EC50 in series [2] is more than 100 µM; in series [3], more than 100 µM; in series [1], 63 µM.

Regarding `CC(=O)N[C@H]1[C@H]([C@H](O)[C@H](O)CO)OC(C(=O)O)=C[C@@H]1NC(=N)N` [ZANAMIVIR], the EC50 in series [1] was 6 µM.

Source of the values: ChEMBL document CHEMBL2203037, “Synthesis and Anti-influenza A Virus Activity of 2,2-Dialkylamantadines and Related Compounds” (ACS Med Chem Lett, 2012).
